Reference: PubChem BioAssay (NCI)
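Tested at 5 concentrations; 48 h exposure; 96-well plates; endpoints linearly interpolated, else capped at highest concentration. GI50 = concentration required for 50% inhibition of growth. TGI: concentration producing complete growth inhibition.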

Assays:
Test in all cases: DTP human tumour cell line panel, 48 h
PC-3 prostate = system: PC-3 prostate
M19-MEL melanoma = system: M19-MEL melanoma
DMS 273 small cell lung = system: DMS 273 small cell lung
LXFL 529 NSCLC = system: LXFL 529 NSCLC
DMS 114 small cell lung = system: DMS 114 small cell lung
SNB-78 CNS = system: SNB-78 CNS
MDA-N = system: MDA-N
RXF-631 renal = system: RXF-631 renal
XF 498 CNS = system: XF 498 CNS

N#CC(I)CS(=O)(=O)c1ccccc1 (configuration not stated)
GI50 (PC-3 prostate): 17 µM | TGI (PC-3 prostate): 32.5 µM

CN(C)CCNC(=O)Cc1ccccc1Nc1c(Cl)cccc1Cl
TGI (M19-MEL melanoma): 28.5 µM | TGI (DMS 273 small cell lung): 30.5 µM | TGI (LXFL 529 NSCLC): 32.5 µM | TGI (DMS 114 small cell lung): 33.1 µM | TGI (SNB-78 CNS): 38.7 µM

O=[N+]([O-])c1ccccc1N=Nc1c(O)[nH]c2c(Cl)cc(Cl)cc12
TGI (MDA-N): > 100 µM | TGI (PC-3 prostate): > 100 µM

C[N+](C)(C)CC(=O)N/N=C(/Cc1cc(=O)oc2cc(O)ccc12)C(=O)Nc1ccc(Cl)cc1
TGI (M19-MEL melanoma): > 100 µM | TGI (DMS 114 small cell lung): > 100 µM | TGI (RXF-631 renal): > 100 µM

CNc1cc2oc(=O)cc(C)c2cc1C
TGI (MDA-N): > 100 µM | TGI (PC-3 prostate): > 100 µM

Cc1cccc(NC2=C(Cl)C(=O)c3nc(C)ccc3C2=O)c1
GI50 (PC-3 prostate): 1.29 µM | TGI (PC-3 prostate): 4.8 µM

CC1=C(C(=O)Nc2ccccc2)C(c2ccc(Cl)c(Cl)c2)C(C(=O)Nc2ccccc2)=C(C)N1
TGI (M19-MEL melanoma): 25.6 µM | TGI (DMS 273 small cell lung): 27.5 µM | TGI (LXFL 529 NSCLC): 25.6 µM | TGI (DMS 114 small cell lung): 24.8 µM | TGI (RXF-631 renal): 27.7 µM | TGI (XF 498 CNS): 30.6 µM | TGI (SNB-78 CNS): 53.8 µM

CCC(C)(C)n1c(C)nc2c1C(=O)c1ccccc1C2=O
TGI (M19-MEL melanoma): 31.7 µM | TGI (DMS 273 small cell lung): 44.6 µM | TGI (LXFL 529 NSCLC): > 100 µM | TGI (XF 498 CNS): 46.7 µM | TGI (SNB-78 CNS): > 100 µM

CCCCCCCC(=O)OCC1OC(n2cc(F)c(=O)[nH]c2=O)C(N)C(OC(=O)CCCCCCC)C1O (configuration not stated)
TGI (M19-MEL melanoma): 36 µM | TGI (DMS 273 small cell lung): 30.8 µM | TGI (LXFL 529 NSCLC): 30.9 µM | TGI (SNB-78 CNS): 39.5 µM

O=c1[nH]c(-c2cccc(F)c2)cc2cc(F)ccc12
GI50 (PC-3 prostate): 0.391 µM | TGI (PC-3 prostate): > 100 µM

O=C(Nc1ncc(Cc2cccc(C(F)(F)F)c2)s1)c1ccc2c(c1)OCCO2
GI50 (PC-3 prostate): 0.341 µM | TGI (PC-3 prostate): > 100 µM

Cc1nc2sccn2c1-c1nc2sccn2c1/C=C1/C(=O)Nc2ccccc21
GI50 (PC-3 prostate): 2.32 µM | TGI (PC-3 prostate): 46.4 µM

C=C(C)C(C1C=C(CCC(C=O)=C(C)C)C(=O)O1)C1(OC)C=C(C)C(=O)O1 (configuration not stated)
GI50 (PC-3 prostate): > 100 µM | TGI (PC-3 prostate): > 100 µM

CCCCNCCCNCCCNC(=O)c1csc(-c2csc(CCNC(=O)C(NC(=O)C(C)C(O)C(C)NC(=O)C(NC(=O)c3nc(C(CC(N)=O)NCC(N)C(N)=O)nc(N)c3C)C(OC3OC(CO)C(O)C(O)C3OC3OC(CO)C(O)C(OC(N)=O)C3O)c3cnc[nH]3)C(C)O)n2)n1 (configuration not stated)
TGI (M19-MEL melanoma): > 100 µM | TGI (DMS 273 small cell lung): 2.97 µM | TGI (LXFL 529 NSCLC): > 100 µM | TGI (DMS 114 small cell lung): 8.73 µM | TGI (PC-3 prostate): 50 µM | TGI (RXF-631 renal): > 100 µM | TGI (SNB-78 CNS): > 100 µM

CN1Nc2ccccc2CC1=O
TGI (M19-MEL melanoma): > 100 µM | TGI (DMS 273 small cell lung): > 100 µM | TGI (DMS 114 small cell lung): > 100 µM | TGI (XF 498 CNS): > 100 µM | TGI (SNB-78 CNS): > 100 µM

COc1ccc(CNc2c3ccccc3nc3ccccc23)cc1F
GI50 (PC-3 prostate): 3.14 µM | TGI (PC-3 prostate): 12 µM

CCCN(CCC)c1c([N+](=O)[O-])cc(C(=O)N(CC)CC)cc1[N+](=O)[O-]
TGI (M19-MEL melanoma): 47.8 µM | TGI (DMS 273 small cell lung): 43.7 µM | TGI (LXFL 529 NSCLC): 63.7 µM | TGI (DMS 114 small cell lung): 42.8 µM | TGI (SNB-78 CNS): > 100 µM

Oc1oc(C(=C2N=c3ccccc3=N2)c2ccc(Cl)cc2)c(O)c1-c1ccc(Cl)cc1
TGI (DMS 273 small cell lung): 19.1 µM | TGI (LXFL 529 NSCLC): 12.2 µM | TGI (DMS 114 small cell lung): 5.52 µM | TGI (RXF-631 renal): > 100 µM | TGI (SNB-78 CNS): > 100 µM

CCOC(=O)Cc1csc(Nc2ccccc2[N+](=O)[O-])n1
TGI (M19-MEL melanoma): > 100 µM | TGI (DMS 273 small cell lung): > 100 µM | TGI (LXFL 529 NSCLC): > 100 µM | TGI (DMS 114 small cell lung): > 100 µM | TGI (SNB-78 CNS): > 100 µM

CNCCCNc1ccnc2cc(Cl)ccc12
GI50 (PC-3 prostate): 17.9 µM | TGI (PC-3 prostate): 57 µM

C/C(=N\NC(N)=O)c1sc(-c2nc(C)c(/C(C)=N/NC(N)=O)s2)nc1C
TGI (M19-MEL melanoma): > 100 µM | TGI (DMS 273 small cell lung): 49.6 µM | TGI (LXFL 529 NSCLC): > 100 µM | TGI (XF 498 CNS): > 100 µM | TGI (SNB-78 CNS): > 100 µM

O=C1C/C(Br)=C\c2ccccc2-c2ccccc21
TGI (M19-MEL melanoma): 4.65 µM | TGI (DMS 273 small cell lung): 7.65 µM | TGI (LXFL 529 NSCLC): 3.5 µM | TGI (DMS 114 small cell lung): 6.58 µM | TGI (XF 498 CNS): 3.7 µM | TGI (SNB-78 CNS): 16.9 µM

O=C1c2cccc3cccc(c23)C(=O)N1CCN(CCO)CCO
TGI (M19-MEL melanoma): 43.8 µM | TGI (DMS 273 small cell lung): 66.3 µM | TGI (LXFL 529 NSCLC): > 100 µM | TGI (RXF-631 renal): > 100 µM | TGI (XF 498 CNS): 66.5 µM | TGI (SNB-78 CNS): > 100 µM

FC(F)(F)c1ccc2nc(NCc3ccccc3)c(-c3ccccc3)nc2c1
TGI (M19-MEL melanoma): > 100 µM | TGI (DMS 273 small cell lung): > 100 µM | TGI (LXFL 529 NSCLC): > 100 µM | TGI (XF 498 CNS): 43.5 µM | TGI (SNB-78 CNS): > 100 µM

C=C(C)[C@@H]1CC[C@]2(CN)CC[C@]3(C)[C@H](CC[C@@H]4[C@@]5(C)CCCNC(C)(C)[C@@H]5CC[C@]43C)[C@@H]12
GI50 (PC-3 prostate): 1.77 µM | TGI (PC-3 prostate): 3.2 µM

COc1ccc2c(=O)oc3c(OC)cc(CCN(C)C)c4c(=O)oc1c2c34
TGI (MDA-N): 14.8 µM | TGI (M19-MEL melanoma): 28.1 µM | TGI (DMS 273 small cell lung): 31.5 µM | TGI (LXFL 529 NSCLC): 26 µM | TGI (DMS 114 small cell lung): 24.9 µM | TGI (PC-3 prostate): 29.4 µM | TGI (SNB-78 CNS): 35.9 µM

Cc1cc(C(=O)CSC(=S)SC(C)(C)C)ccc1Cl
TGI (MDA-N): 36.8 µM | TGI (PC-3 prostate): 95.8 µM

O/N=C1\CCCCC1C(NO)c1ccccc1 (configuration not stated)
TGI (M19-MEL melanoma): > 100 µM | TGI (DMS 273 small cell lung): > 100 µM | TGI (LXFL 529 NSCLC): > 100 µM | TGI (DMS 114 small cell lung): > 100 µM | TGI (RXF-631 renal): > 100 µM | TGI (SNB-78 CNS): > 100 µM

CCN(Cc1c(F)cccc1OC)c1ccc(CO)c(Cl)c1
GI50 (PC-3 prostate): 17.1 µM | TGI (PC-3 prostate): 58.4 µM

COC(=O)/C=C/c1cc(OC(C)=O)c2c(c1)C(C(=O)OC)C(c1ccc(OC(C)=O)c(OC(C)=O)c1)O2 (configuration not stated)
GI50 (PC-3 prostate): 0.371 µM | TGI (PC-3 prostate): > 49 µM

O=C1C=C(c2c(O)ccc3ccccc23)c2cc(O)ccc2C1=O
TGI (M19-MEL melanoma): 9.68 µM | TGI (DMS 273 small cell lung): 30.8 µM | TGI (LXFL 529 NSCLC): 19.5 µM | TGI (DMS 114 small cell lung): 19.6 µM | TGI (XF 498 CNS): 23.3 µM | TGI (SNB-78 CNS): 42.5 µM

COc1cc2c(cc1OCCCN1CCN(CCCOc3cc4c(cc3OC)C(=O)N3CC(F)(F)C[C@H]3C=N4)CC1)N=C[C@@H]1CC(F)(F)CN1C2=O
GI50 (PC-3 prostate): 3.06 µM | TGI (PC-3 prostate): 9.74 µM

COc1ccc(-c2c(C#N)c(N3CCOCC3)nc3[nH]c(=S)[nH]c(=S)c23)cc1OC
GI50 (PC-3 prostate): 40.3 µM | TGI (PC-3 prostate): > 100 µM

COc1ccc(Cl)cc1NC(=O)c1ccc(NC2=C(Cl)C(=O)N(Cc3ccccc3)C2=O)cc1
GI50 (PC-3 prostate): 52.6 µM | TGI (PC-3 prostate): > 100 µM

COc1c(C)c(OCC=C(C)C)cc(CO)c1CO
TGI (MDA-N): > 100 µM | TGI (PC-3 prostate): > 100 µM

COc1ccc(-c2cc(=O)oc3c4c(ccc23)OCN(Cc2ccc(F)cc2)C4)cc1
GI50 (PC-3 prostate): 15.8 µM | TGI (PC-3 prostate): 44.1 µM

CCCCCCCCCCCC[N+]12CC[N+](CCN)(CC1)CC2
TGI (M19-MEL melanoma): > 100 µM | TGI (DMS 273 small cell lung): 31.9 µM | TGI (LXFL 529 NSCLC): > 100 µM | TGI (DMS 114 small cell lung): > 100 µM | TGI (RXF-631 renal): > 100 µM | TGI (XF 498 CNS): > 100 µM | TGI (SNB-78 CNS): > 100 µM
